From ChEMBL document CHEMBL5346968, “Exploring Structural Determinants of Bias among D4 Subtype-Selective Dopamine Receptor Agonists” (J Med Chem, 2023)

Experiments:
[1] = Permeability of the compound across basal to apical membrane in human Caco-2 cells at 5 uM incubated for 4 hrs by HPLC(UV) analysis; assay type: ADME, cell-based; settings: caco-2, 4 h
[2] = Permeability of the compound across basal to apical membrane in human Caco-2 cells at 5 uM incubated for 4 hrs in the presence of valspodar by HPLC(UV) analysis; assay type: ADME, cell-based; settings: caco-2, 4 h
D(2) dopamine receptor [3] = molecular target: T1, D(2) dopamine receptor (Homo sapiens, UniProt P14416); assay: Displacement of [3H]-N-methylspiperone from human dopmaine D2L receptor expressed in CHO cell membrane assessed as inhibition constant by competition binding assay; assay type: cell membranes
D(2) dopamine receptor [4] = molecular target: T1, D(2) dopamine receptor; assay: Displacement of [3H]-N-methylspiperone from human dopmaine D2S receptor expressed in CHO cell membrane assessed as inhibition constant by competition binding assay; assay type: cell membranes
D(3) dopamine receptor = D(3) dopamine receptor (Homo sapiens, UniProt P35462); assay: Displacement of [3H]-N-methylspiperone from human dopmaine D3 receptor expressed in HEK293T cells assessed as inhibition constant by competition binding assay; assay type: cell-based
D(1A) dopamine receptor = D(1A) dopamine receptor (Homo sapiens, UniProt P21728); assay: Displacement of [3H]SCH23390 from human dopamine D1 receptor expressed in HEK293T cells assessed as inhibition constant by competition binding assay; assay type: cell-based
D(1B) dopamine receptor = D(1B) dopamine receptor (Homo sapiens, UniProt P21918); assay: Displacement of [3H]SCH23390 from human dopamine D5 receptor expressed in HEK293T cells assessed as inhibition constant by competition binding assay; assay type: cell-based
[5] = molecular target: T2, Alpha-1A adrenergic receptor (Homo sapiens, UniProt P35348); assay: Displacement of [3H]prazosin from adrenergic alpha 1A receptor (unknown origin) expressed in HEK293T cells assessed as inhibition constant by competition binding assay; assay type: cell-based
T2 sequence (P35348 whole entry): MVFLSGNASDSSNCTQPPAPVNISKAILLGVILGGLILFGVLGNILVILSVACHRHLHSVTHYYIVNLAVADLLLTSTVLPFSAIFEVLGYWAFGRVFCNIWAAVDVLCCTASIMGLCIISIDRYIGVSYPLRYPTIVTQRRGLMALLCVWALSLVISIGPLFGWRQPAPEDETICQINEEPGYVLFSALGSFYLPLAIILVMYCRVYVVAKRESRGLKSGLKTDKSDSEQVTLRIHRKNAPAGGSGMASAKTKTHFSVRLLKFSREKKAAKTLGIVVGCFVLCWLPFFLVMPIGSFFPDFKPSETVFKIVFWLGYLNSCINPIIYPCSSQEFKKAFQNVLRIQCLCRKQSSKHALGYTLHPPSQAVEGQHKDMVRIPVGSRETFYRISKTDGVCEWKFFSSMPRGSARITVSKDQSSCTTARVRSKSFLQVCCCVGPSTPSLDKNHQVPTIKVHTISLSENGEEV

[6] = molecular target: T3, Alpha-2A adrenergic receptor (Homo sapiens, UniProt P08913); assay: Displacement of [3H]RX821002 from adrenergic alpha 2A receptor (unknown origin) expressed in HEK293T cells assessed as inhibition constant by competition binding assay; assay type: cell-based
T3 sequence (P08913 whole entry): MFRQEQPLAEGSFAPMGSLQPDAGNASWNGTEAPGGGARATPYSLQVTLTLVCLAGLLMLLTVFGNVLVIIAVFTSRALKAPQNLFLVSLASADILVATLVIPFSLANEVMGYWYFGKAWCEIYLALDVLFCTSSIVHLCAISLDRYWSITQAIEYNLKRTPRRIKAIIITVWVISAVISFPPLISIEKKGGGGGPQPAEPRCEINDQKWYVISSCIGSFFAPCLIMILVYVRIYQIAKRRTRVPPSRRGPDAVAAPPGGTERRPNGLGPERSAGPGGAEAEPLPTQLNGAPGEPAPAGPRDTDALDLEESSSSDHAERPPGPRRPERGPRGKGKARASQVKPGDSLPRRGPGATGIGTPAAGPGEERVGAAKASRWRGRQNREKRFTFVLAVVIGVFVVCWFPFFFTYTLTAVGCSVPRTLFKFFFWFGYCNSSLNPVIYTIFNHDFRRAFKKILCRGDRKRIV

[7] = molecular target: T4, 5-hydroxytryptamine receptor 1A (Homo sapiens, UniProt P08908); assay: Displacement of [3H][…] from 5-HT1A receptor (unknown origin) expressed in HEK293T cells assessed as inhibition constant by competition binding assay; assay type: cell-based
T4 sequence (P08908 whole entry): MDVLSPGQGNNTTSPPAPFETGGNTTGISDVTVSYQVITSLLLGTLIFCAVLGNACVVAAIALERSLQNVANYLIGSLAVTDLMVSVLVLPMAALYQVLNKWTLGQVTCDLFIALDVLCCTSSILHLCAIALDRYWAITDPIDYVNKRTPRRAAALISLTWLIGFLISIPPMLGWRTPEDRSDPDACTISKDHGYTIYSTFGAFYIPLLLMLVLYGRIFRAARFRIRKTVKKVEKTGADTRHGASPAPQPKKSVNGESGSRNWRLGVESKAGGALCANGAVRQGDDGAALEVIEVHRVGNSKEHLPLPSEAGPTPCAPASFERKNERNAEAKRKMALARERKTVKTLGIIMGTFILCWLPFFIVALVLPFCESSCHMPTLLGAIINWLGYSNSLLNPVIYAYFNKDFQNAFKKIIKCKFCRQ

[8] = molecular target: 5-hydroxytryptamine receptor 2A (Homo sapiens, UniProt P28223); assay: Displacement of [3H]ketanserin from 5-HT2A receptor (unknown origin) expressed in HEK293T cells assessed as inhibition constant by competition binding assay; assay type: cell-based
[9] = Drug metabolism in pooled rat liver microsomes assessed as O-demethylation mediated metabolite formation at 40 uM measured upto 60 mins in the presence of NADPH by HPLC(UV) analysis; assay type: ADME, Microsome; settings: 1 h
[10] = Drug metabolism in pooled rat liver microsomes assessed as hydroxylation mediated metabolite formation at 40 uM measured upto 60 mins in the presence of NADPH by HPLC(UV) analysis; assay type: ADME, Microsome; settings: 1 h
[11] = Permeability of the compound across basal to apical membrane in human Caco-2 cells at 50 uM incubated for 4 hrs by HPLC(UV) analysis; assay type: ADME, cell-based; settings: caco-2, 4 h
[12] = Apparent permeability of the compound across basal to apical membrane in human Caco-2 cells at 50 uM incubated for 4 hrs by HPLC(UV) analysis; assay type: ADME, cell-based
[13] = Retention time of the compound by HPLC(UV) method; assay type: physicochemical

T1 sequence (P14416 whole entry): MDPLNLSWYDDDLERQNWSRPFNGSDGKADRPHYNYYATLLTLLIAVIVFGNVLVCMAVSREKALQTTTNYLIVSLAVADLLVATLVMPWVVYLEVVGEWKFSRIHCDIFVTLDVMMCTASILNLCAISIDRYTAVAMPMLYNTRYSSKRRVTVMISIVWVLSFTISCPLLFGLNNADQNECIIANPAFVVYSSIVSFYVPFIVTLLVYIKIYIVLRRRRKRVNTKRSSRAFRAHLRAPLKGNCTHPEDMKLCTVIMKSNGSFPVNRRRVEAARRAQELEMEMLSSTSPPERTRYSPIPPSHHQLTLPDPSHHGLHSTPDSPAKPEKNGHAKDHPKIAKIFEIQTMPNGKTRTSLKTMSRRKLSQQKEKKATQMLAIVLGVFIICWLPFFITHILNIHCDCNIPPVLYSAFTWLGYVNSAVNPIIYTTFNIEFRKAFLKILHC
5-hydroxytryptamine receptor 2A, sequence (P28223 whole entry): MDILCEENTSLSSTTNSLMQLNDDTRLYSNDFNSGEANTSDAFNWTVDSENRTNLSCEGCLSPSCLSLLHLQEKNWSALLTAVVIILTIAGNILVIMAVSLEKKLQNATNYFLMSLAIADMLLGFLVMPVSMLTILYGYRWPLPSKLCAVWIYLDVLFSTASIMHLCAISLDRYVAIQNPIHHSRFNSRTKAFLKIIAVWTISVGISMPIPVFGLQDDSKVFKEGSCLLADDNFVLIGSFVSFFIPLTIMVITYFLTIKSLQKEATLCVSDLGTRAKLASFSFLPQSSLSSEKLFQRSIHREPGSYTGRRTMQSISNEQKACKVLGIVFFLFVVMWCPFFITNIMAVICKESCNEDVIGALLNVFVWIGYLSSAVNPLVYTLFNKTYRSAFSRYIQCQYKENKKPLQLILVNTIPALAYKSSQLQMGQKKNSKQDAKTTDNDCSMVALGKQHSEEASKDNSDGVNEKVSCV
D(1B) dopamine receptor, sequence (P21918 whole entry): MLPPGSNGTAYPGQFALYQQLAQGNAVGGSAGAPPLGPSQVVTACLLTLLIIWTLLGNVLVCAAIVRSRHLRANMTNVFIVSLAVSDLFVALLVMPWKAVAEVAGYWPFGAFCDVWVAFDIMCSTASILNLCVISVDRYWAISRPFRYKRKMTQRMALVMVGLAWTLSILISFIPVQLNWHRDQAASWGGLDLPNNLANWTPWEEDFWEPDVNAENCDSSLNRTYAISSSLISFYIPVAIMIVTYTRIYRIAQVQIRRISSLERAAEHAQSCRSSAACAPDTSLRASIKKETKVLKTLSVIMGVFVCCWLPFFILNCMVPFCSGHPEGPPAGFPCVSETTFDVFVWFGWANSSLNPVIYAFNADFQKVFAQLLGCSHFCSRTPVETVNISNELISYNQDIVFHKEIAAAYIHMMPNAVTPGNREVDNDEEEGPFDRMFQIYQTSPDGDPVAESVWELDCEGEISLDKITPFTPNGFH
D(1A) dopamine receptor, sequence (P21728 whole entry): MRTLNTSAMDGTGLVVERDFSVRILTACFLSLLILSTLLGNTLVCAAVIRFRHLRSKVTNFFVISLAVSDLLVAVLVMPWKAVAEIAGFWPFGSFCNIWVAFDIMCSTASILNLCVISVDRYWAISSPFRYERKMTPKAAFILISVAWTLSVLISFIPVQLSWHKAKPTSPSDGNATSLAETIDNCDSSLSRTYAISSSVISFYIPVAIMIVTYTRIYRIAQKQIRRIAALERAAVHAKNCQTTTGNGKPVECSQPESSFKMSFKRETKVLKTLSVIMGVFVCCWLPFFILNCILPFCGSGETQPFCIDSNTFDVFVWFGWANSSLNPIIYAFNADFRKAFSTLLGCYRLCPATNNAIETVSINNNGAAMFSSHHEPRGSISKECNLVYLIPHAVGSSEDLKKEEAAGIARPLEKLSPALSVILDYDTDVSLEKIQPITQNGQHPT
D(3) dopamine receptor, sequence (P35462 whole entry): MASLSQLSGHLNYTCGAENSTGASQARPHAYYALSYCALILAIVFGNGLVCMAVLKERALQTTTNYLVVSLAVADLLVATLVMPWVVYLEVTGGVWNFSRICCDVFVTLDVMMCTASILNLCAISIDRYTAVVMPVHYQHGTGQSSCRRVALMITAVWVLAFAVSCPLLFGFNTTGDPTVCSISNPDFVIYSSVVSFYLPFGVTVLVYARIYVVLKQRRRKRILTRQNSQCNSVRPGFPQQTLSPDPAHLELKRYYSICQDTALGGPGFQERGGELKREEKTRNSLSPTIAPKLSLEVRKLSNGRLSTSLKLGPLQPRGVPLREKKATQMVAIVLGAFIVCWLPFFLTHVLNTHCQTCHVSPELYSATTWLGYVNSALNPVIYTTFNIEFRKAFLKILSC

Compound | permeability [1] | permeability [2] | Ki (D(2) dopamine receptor [3]) | Ki (D(2) dopamine receptor [4]) | Ki (D(3) dopamine receptor) | Ki (D(1A) dopamine receptor) | Ki (D(1B) dopamine receptor) | Ki [5] | Ki [6] | Ki [7] | Ki [8] | Drug metabolism [9] | Drug metabolism [10] | permeability [11] | Papp B→A at 4 h, 50 µM [12] | Retention_time [13]
C[C@H]1O[C@@H](O[C@H]2[C@@H](O)C[C@H](O[C@H]3[C@@H](O)C[C@H](O[C@H]4CC[C@@]5(C)[C@H](CC[C@@H]6[C@@H]5C[C@@H](O)[C@]5(C)[C@@H](C7=CC(=O)OC7)CC[C@]65O)C4)O[C@@H]3C)O[C@@H]2C)C[C@H](O)[C@@H]1O [DIGOXIN] | 22.9% | 12.1% |  |  |  |  |  |  |  |  |  |  |  |  |  | 
COc1ccccc1N1CCN(CCCNC(=O)Nc2ccccc2-c2ccc(-c3ccccc3)cc2)CC1 |  |  | 52 nM | 36 nM | 44 nM | 16 nM | 350 nM | 8.2 nM | 150 nM | 100 nM | 160 nM | Metabolite_Detected | Metabolite_Detected | Impermeable | > 1 ×10⁻⁶ cm/s | 4.37 min
